Legend:
[1] = Hydrolysis reaction: pH and turbidity of diluted ZLC solutions before and after aging; assay type: physicochemical; details: for pH after aging / turbidity after aging (NTU): aged in 37° C. oven over 5 hours; for initial pH / initial turbidity (NTU): before aging; for initial turbidity (NTU): nephelometer
Description: Hydrolysis reaction: A 185 mg/ml ZLC solution is prepared and diluted several-fold and aged in a 37° C. oven over 5 hours for turbidity studies. […] Turbidity of the solutions is measured using a nephelometer, results being given in nephelometric turbidity units (NTU).
The precipitates formed in the 8×, 16× and 32× diluted solutions are collected by centrifugation and identified as crystalline ZnO by PXRD. From the supernatant, a single crystal is grown and shown by X-ray diffraction to be Lysine Monohydrochloride Dihydrate (LysineHCl·2H2O).
The mechanism of the ZLC hydrolysis reaction can be expressed as [Zn(Lysine)2Cl]^+Cl^−·2H2O+H2O→ZnO+Lysine·HCl·2H2O

[2] = target: Bovine Serum Albumin (BSA) (Bos taurus, UniProt P02769); experiment: Flocculation: interaction of ZLC with BSA solutions (turbidity, pH, observation); assay type: physicochemical; details: for Turbidity (NTU) / observation / pH: ZLC about 15 mg/ml, 5 hours at 37° C.
Description: Turbidity and pH of solutions are measured 5 hours after the mixtures were placed in a 37° C. oven, and the results are shown in Table 3.

[3] = sample 1: DI water, 0% BSA, initial pH 6.4
[4] = sample 2: 1% BSA, initial pH 7.2
[5] = sample 3: 1% BSA, pH adjusted to 5.1

Bovine Serum Albumin (BSA), sequence (P02769 25-607): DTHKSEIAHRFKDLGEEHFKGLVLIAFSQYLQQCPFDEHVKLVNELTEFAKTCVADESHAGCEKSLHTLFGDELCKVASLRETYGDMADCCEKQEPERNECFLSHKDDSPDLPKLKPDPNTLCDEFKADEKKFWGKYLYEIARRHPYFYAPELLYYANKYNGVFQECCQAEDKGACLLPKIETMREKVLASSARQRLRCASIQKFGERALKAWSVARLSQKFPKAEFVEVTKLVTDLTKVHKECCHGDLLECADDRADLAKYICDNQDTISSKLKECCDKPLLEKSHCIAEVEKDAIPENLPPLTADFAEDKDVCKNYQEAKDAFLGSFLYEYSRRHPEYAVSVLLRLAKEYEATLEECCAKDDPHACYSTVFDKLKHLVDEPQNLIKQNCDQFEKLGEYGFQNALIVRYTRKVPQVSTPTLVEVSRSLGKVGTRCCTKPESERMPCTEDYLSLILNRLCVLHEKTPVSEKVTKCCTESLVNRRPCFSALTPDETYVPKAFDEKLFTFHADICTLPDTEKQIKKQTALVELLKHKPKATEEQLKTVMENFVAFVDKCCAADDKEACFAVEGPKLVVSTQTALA

SMILES: NCCCCC(N)C(=O)O.NCCCCC(N)C(=O)O.O.O.[Cl-].[Cl-].[Zn+2] (centres unmarked) [ZLC, [Zn(C6H14N2O2)2Cl]^+Cl^−]
- pH after aging ([1]; 5.78 mg/ml ZLC solution): 8
- turbidity after aging (NTU) ([1]; 5.78 mg/ml ZLC solution): >1000 NTU
- initial pH ([1]; 5.78 mg/ml ZLC solution): 8
- initial turbidity (NTU) ([1]; 5.78 mg/ml ZLC solution): 40.1 NTU
- pH after aging ([1]; 11.56 mg/ml ZLC solution): 7.8
- turbidity after aging (NTU) ([1]; 11.56 mg/ml ZLC solution): >1000 NTU
- initial pH ([1]; 11.56 mg/ml ZLC solution): 7.8
- initial turbidity (NTU) ([1]; 11.56 mg/ml ZLC solution): 14.8 NTU
- pH after aging ([1]; 23.125 mg/ml ZLC solution): 7.7
- turbidity after aging (NTU) ([1]; 23.125 mg/ml ZLC solution): 247.4 NTU
- initial pH ([1]; 23.125 mg/ml ZLC solution): 7.7
- initial turbidity (NTU) ([1]; 23.125 mg/ml ZLC solution): 0.7 NTU
- pH after aging ([1]; 46.25 mg/ml ZLC solution): 7.4
- turbidity after aging (NTU) ([1]; 46.25 mg/ml ZLC solution): 2.8 NTU
- initial pH ([1]; 46.25 mg/ml ZLC solution): 7.4
- initial turbidity (NTU) ([1]; 46.25 mg/ml ZLC solution): 1.5 NTU
- pH after aging ([1]; 92.5 mg/ml ZLC solution): 7
- turbidity after aging (NTU) ([1]; 92.5 mg/ml ZLC solution): 2.6 NTU
- initial pH ([1]; 92.5 mg/ml ZLC solution): 7
- initial turbidity (NTU) ([1]; 92.5 mg/ml ZLC solution): 2.8 NTU
- pH after aging ([1]; 185 mg/ml ZLC solution): 6.8
- turbidity after aging (NTU) ([1]; 185 mg/ml ZLC solution): 4.1 NTU
- initial pH ([1]; 185 mg/ml ZLC solution): 6.8
- initial turbidity (NTU) ([1]; 185 mg/ml ZLC solution): 4.7 NTU
- stability of the complex upon dilution with water ([1]; precipitates of 8×, 16× and 32× diluted solutions identified as crystalline ZnO by PXRD): disassociates upon dilution
- protein flocculation ([2]; BSA as protein): ability to flocculate proteins
- Turbidity (NTU) [2, 3]: 357 NTU
- observation [2, 3]: slightly cloudy
- pH [2, 3]: 8
- Turbidity (NTU) [2, 4]: >1000 NTU
- observation [2, 4]: very cloudy
- pH [2, 4]: 8.2
- Turbidity (NTU) [2, 5]: >1000 NTU
- observation [2, 5]: very cloudy
- pH [2, 5]: 8
